One may read the IC50 as the concentration that gives 50% inhibition. Higher therefore signals lower potency.

The target of this test is HPK1 kinase (Homo sapiens (Human), UniProt Q92918). Nature of the test: HPK1 kinase activity inhibition (ADP-Glo Kinase Assay). It is filed as biochemical. The settings on record: HPK1, MBP substrate, ATP, 25° C. 60 min. Here is the method: Test Example 1: Detection of Compound's Ability to Inhibit HPK1 Kinase Activity (Method 1)
Chain of HPK1 kinase (Q92918 whole entry): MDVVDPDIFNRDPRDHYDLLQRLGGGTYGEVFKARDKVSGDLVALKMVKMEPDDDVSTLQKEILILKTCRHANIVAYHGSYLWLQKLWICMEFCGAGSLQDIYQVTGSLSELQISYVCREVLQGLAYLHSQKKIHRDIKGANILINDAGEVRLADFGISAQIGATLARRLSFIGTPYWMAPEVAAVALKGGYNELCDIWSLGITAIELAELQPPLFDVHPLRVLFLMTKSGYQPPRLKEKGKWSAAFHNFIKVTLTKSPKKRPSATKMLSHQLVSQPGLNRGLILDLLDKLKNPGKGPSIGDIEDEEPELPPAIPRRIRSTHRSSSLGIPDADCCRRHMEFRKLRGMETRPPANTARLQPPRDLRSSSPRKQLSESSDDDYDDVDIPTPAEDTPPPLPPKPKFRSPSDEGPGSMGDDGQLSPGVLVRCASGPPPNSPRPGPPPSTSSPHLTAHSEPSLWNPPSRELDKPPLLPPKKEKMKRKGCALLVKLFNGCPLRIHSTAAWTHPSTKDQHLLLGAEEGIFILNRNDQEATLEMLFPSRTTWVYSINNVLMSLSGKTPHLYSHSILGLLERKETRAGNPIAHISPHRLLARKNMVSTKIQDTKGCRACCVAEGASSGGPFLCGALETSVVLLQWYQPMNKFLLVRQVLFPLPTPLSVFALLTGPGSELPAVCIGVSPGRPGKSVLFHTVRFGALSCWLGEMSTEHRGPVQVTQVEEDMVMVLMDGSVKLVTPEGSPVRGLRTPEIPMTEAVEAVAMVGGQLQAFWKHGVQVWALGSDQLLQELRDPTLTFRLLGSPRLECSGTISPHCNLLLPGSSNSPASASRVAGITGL
The specific operation is as follows: configure the enzymatic reaction system buffer (10 mM MOPS, pH 7.2, 5 mM β-glycerol-phosphate, 10 mM MgCl2, 0.8 mM EDTA, 2 mM EGTA, 0.1 mM DTT); the test compound (1 mM the compound stock solution in DMSO) was diluted with buffer to the highest concentration of 60 uM (containing 6% DMSO), and the compound with a concentration of 60 μM was initially diluted 5 times with a buffer containing 6% DMSO for a total of 8 points of gradient concentration; then dilute HPK1 kinase to 30 nM in buffer. Add 2 μl of HPK1 kinase diluent to each well of a Greiner 384-well microplate (Cat. No. 784075), and add 2 μl of buffer to the control well; add 1 μl of the diluted compound to the reaction well after brief centrifugation, and add 1 μl buffer solution containing 6% DMSO to the control well; after short centrifugation, place in a 25° C. constant temperature incubator (Shanghai Yiheng Scientific Instrument Co., Ltd., Cat. No.: LRH-150) and incubate for 20 minutes. Add 3 μl of reaction substrate (10 μM MBP and 20 μM ATP dissolved in distilled water) to each well, briefly centrifuge and incubate in a constant temperature incubator at 25° C. for 60 min, and use ADP-Glo Kinase Assay Kit to detect the enzymatic reaction activity, ADP-Glo Kinase Assay Kit detection is carried out according to the operating instructions of the kit. Data are described using the half maximal inhibitory concentration IC50 of the compound.
On the technique in general: ADP-Glo turns the ADP formed in a reaction into a luminescent signal.
The molecule `C=C(C)c1cccc2cnc(Nc3cc4c(nc3OC)CCN(C)C4)nc12` [Example 16, N-(2-methoxy-6-methyl-5,6,7,8-tetrahydro-1,6-naphthyridin-3-yl)-8-(prop-1-en-2-yl) quinazolin-2-amine] had an IC50 of 1.74 nM. The value for `COc1nc2c(cc1Nc1ncc3cccc(C4=CCN(C(C)=O)CC4)c3n1)CN(C)CC2` [Example 17, 1-(4-(2-((2-methoxy-6-methyl-5,6,7,8-tetrahydro-1,6-naphthyridin-3-yl)amino)quinazoline-8-yl)-3,6-dihydropyridin-1(2H)-yl)ethan-1-one] was less than 0.1 nM; that for `COc1nc2c(cc1Nc1ncc3cccc(-c4ccccc4OC(F)(F)F)c3n1)CN(C)CC2` [Example 18] was less than 0.1 nM; that for `COc1nc2c(cc1Nc1ncc3cccc(-c4ccccc4SC)c3n1)CN(C)CC2` [Example 19, N-(2-methoxy-6-methyl-5,6,7,8-tetrahydro-1,6-naphthyridin-3-yl)-8-(2-(methylthio)phenyl) Quinazolin-2-amine] was less than 0.1 nM. Then `COc1cccc(F)c1-c1cccc2cnc(Nc3cc4c(nc3OC)CCN(C)C4)nc12` [Example 21, 8-(2-fluoro-6-methoxyphenyl)-N-(2-methoxy-6-methyl-5,6,7,8-tetrahydro-1,6-naphthyridine-3-base) quinazolin-2-amine], with less than 0.1 nM; and `COc1nc2c(cc1Nc1ncc3cccc(-c4ccccc4OCc4ccccc4)c3n1)CN(C)CC2` [Example 22, 8-(2-(benzyloxy)phenyl)-N-(2-methoxy-6-methyl-5,6,7,8-tetrahydro-1,6-naphthyridin-3-yl) quinazolin-2-amine], with 5.16 nM.

In the case of `COc1nc2c(cc1Nc1ncc3cccc(-c4cccnc4OC)c3n1)CN(C)CC2` [Example 23, N-(2-methoxy-6-methyl-5,6,7,8-tetrahydro-1,6-naphthyridin-3-yl)-8-(2-methoxypyridin-3-yl) quinazolin-2-amine], the IC50 is less than 0.1 nM. Then `COc1nc2c(cc1Nc1ncc3cccc(N4CCCC4=O)c3n1)CN(C)CC2` [Example 24, 1-(2-((2-methoxy-6-methyl-5,6,7,8-tetrahydro-1,6-naphthyridin-3-yl)amino)quinazolin-8-yl) pyrrolidin-2-one], with less than 0.1 nM; and `COc1ccccc1-c1nccc2cnc(Nc3cc4c(nc3OC)CCN(C)C4)nc12` [Example 25, N-(2-methoxy-6-methyl-5,6,7,8-tetrahydro-1,6-naphthyridin-3-yl)-8-(2-methoxyphenyl)pyrido [3,4-d]pyrimidin-2-amine], with 0.16 nM; and `COc1nc2c(cc1Nc1ncc3ccnc(-c4ccc(=O)n(C)c4)c3n1)CN(C)CC2` [Example 27, 5-(2-((2-methoxy-6-methyl-5,6,7,8-tetrahydro-1,6-naphthyridin-3-yl)amino)pyrido[3,4-d]pyrimidino-8-yl)-1-methylpyridin-2(1H)-one], with 16.2 nM.

For `COc1nc2c(cc1Nc1ncc3cccc(-c4ccn(C)n4)c3n1)CN(C)CC2` [Example 30, N-(2-methoxy-6-methyl-5,6,7,8-tetrahydro-1,6-naphthyridin-3-yl)-8-(1-methyl-1H-pyrazole-3-yl)quinazolin-2-amine], inhibition was half-maximal at 0.27 nM (IC50). In turn, `COc1nc2c(cc1Nc1ncc3cccc(NCC4CCOCC4)c3n1)CN(C)CC2` [Example 31, N2-(2-methoxy-6-methyl-5,6,7,8-tetrahydro-1,6-naphthyridin-3-yl)-N8-((tetrahydro-2H-pyran-4-yl)methyl)quinazoline-2,8-diamine] returned an IC50 of 1.66 nM.

`COc1nc2c(cc1Nc1ncc3cccc(N4Cc5ccccc5C4=O)c3n1)CN(C)CC2` [Example 32, 2-(2-((2-methoxy-6-methyl-5,6,7,8-tetrahydro-1,6-naphthyridin-3-yl)amino)quinazolin-8-yl) isoindolin-1-one] registered a half-maximal inhibitory concentration (IC50) of 3.61 nM.

Molecule `COc1nc2c(cc1Nc1ncc3ccnc(N4CCCCC4)c3n1)CN(C)CC2` [Example 33, N-(2-methoxy-6-methyl-5,6,7,8-tetrahydro-1,6-naphthyridin-3-yl)-8-(piperidin-1-yl) pyrido[3,4-d]pyrimidin-2-amine] returned an IC50 of 0.52 nM. Against the preceding molecule, the IC50 is about 6.9-fold lower.

The values are drawn from patent US20230399327A1, “HIGH ACTIVITY HPK1 KINASE INHIBITOR” (ADLAI NORTYE BIOPHARMA CO., LTD., priority 2020, published 2023).
